How the values were obtained:
[1] = test system: VEGF expression in 786-O cells; assay: VEGF ELISA assay in 786-O cells; format: cell-based; conditions: about 48 hours incubation
Procedure: 100×DMSO stock solution dissolved with the drug was prepared in assay medium (RPMI-1640 containing 2% FBS; FBS: 10099141C, Gibco; RPMI-1640: 12440053, Gibco) to formulate a series of dilutions of 10×compounds. To a clear flat-bottom 96-well plate (3599, Corning) was added 20 μL of the 10×compound dilution. Then approximately 40,000 786-O cells (ATCC®CRL-1932™) in 180 μL of culture medium were seeded into the 96-well plate. The final concentration of DMSO (D2650, Sigma) in each well was 0.1%. After incubating in the incubator for about 48 hours, 100 μL of the upper medium from each well was pipetted and placed in a new 96-well plate (3799, Corning). An ELISA kit (DY293B, R&D Systems) was used. The concentration of VEGF was determined according to the OD value of each well at […] detected by a microplate reader. EC50 values were calculated by GraphPad Prism software using the dose-response-inhibition (four parameter) equation.

[2] = test system: HIF response element(HRE)-dependent luciferase in 786-O-HRE-Luc cells; assay: Luciferase assay in 786-O-HRE-Luc cells; format: cell-based; conditions: approximately 24 hours incubation
Procedure: 786-O-HRE-Luc cells were obtained by infecting 786-O (ATCC®CRL-1932™) cells purchased from ATCC with commercial lentivirus. Appropriate 786-O-HRE-Luc single cell clones were screened, expanded, and used for the subsequent luciferase assay. For the luciferase assay, 100×DMSO stock solution dissolved with the drug was prepared in assay medium (RPMI-1640 containing 2% FBS; FBS: 10099141C, Gibco; RPMI-1640: 12440053, Gibco) to formulate a series of dilutions of 10×compounds. To a clear flat-bottom 96-well plate (3599, Corning) was added 20 μL of the 10×compound dilution. Then approximately 100,000 786-O-HRE-Luc cells in 180 μL of culture medium were seeded into the 96-well plate. The final concentration of DMSO (D2650, Sigma) in each well was 0.1%. After approximately 24 hours of incubation in the incubator, luciferase activity was determined using the Dual-Luciferase Reporter Assay System (E1960, Promega) reagent following the manufacturer's recommended method. EC50 values were calculated by GraphPad Prism software using the dose-response-inhibition (four parameter) equation.

[3] = Pharmacokinetic test in SD rats by gavage
Procedure: animals: SD rats, male, 200 to 220 g, purchased from Shanghai Jiesijie Laboratory Animal Co., Ltd.
The SD rats in each test compound group (3 rats in each group) were fasted overnight and then intragastrically administered the compounds (PO, administration dosage of 10 mg/kg or 5 mg/kg, administration volume of 10 mL/kg), and given food 4 hours after administration.
Approximately 0.2 mL of blood was collected from the jugular vein before administration and 0.083 hours, 0.25 hours, 0.5 hours, 1 hour, 2 hours, 4 hours, 6 hours, 8 hours, and 24 hours after administration, anticoagulated with sodium heparin. Blood samples were placed on ice after collection, and plasma was separated by centrifugation (centrifugation conditions: 1500 g, 10 minutes). The collected plasma was stored at −40° C. to −20° C. before analysis.
LC-MS/MS was used to determine the content of the test compound in rat plasma after intragastric administration.

[4] = SD rats, male, PO 10 mg/kg, plasma
[5] = male, SD, rat, in vivo, po, 5 mg/kg

SMILES	EC50 [1]	EC50 [2]	other results
N=S1(=O)c2ccc(Oc3cc(F)cc(Cl)c3)c3c2C(O)(CC3F)C1(F)F (centres unmarked) [Compound 1]	115 nM		
N#Cc1cc(F)cc(Oc2ccc3c4c2C(F)CC4(O)C(F)(F)S3(=N)=O)c1 (centres unmarked) [Compound 2]		46 nM	
N#Cc1cncc(Oc2ccc3c4c2[C@@H](F)[C@H](F)[C@]4(O)C(F)(F)S3(=O)=O)c1 [Compound 3-P1]	180 nM	67.7 nM	
N#Cc1cncc(Oc2ccc3c4c2[C@H](F)[C@@H](F)[C@@]4(O)C(F)(F)S3(=O)=O)c1 [Compound 3-P2]	2760 nM	3990 nM	
N#Cc1cncc(Oc2ccc3c4c2[C@H](F)[C@H](F)[C@@]4(O)C(F)(F)S3(=O)=O)c1 [Compound 3-P4]	4920 nM	6410 nM	
N#Cc1cc(F)cc(Oc2ccc3c4c2[C@H](F)[C@@H](F)[C@@]4(O)C(F)(F)S3(=O)=O)c1 [Compound 4-P2]	54.4 nM	48.5 nM	
N#Cc1cc(F)cc(Oc2ccc3c4c2[C@@H](F)[C@@H](F)[C@]4(O)C(F)(F)S3(=O)=O)c1 [Compound 4-P3]	15.2 nM	6.1 nM	
CS(=O)(=O)c1ccc(Oc2cc(F)cc(C#N)c2)c2c1[C@H](O)C(F)(F)C2 [PT2385, reference compound]			AUC(0-inf) [3, 5]: 843 ng·h/mL; Cmax [3, 5]: 193 ng/mL

Continued, in another order:

EC50 [1]	EC50 [2]	SMILES	other results
30.9 nM	12.2 nM	N#Cc1cncc(Oc2ccc3c4c2[C@@H](F)[C@@H](F)[C@]4(O)C(F)(F)S3(=O)=O)c1 [Compound 3-P3]	Plasma concentration and area under the curve compared with comparative example PT2385 ([3]; SD rats, PO, 10 mg/kg vs PT2385 5 mg/kg): significantly improved plasma concentration and area under the curve; Area under the curve AUC0-∞ [3, 4]: 24806 ng·h/mL; Plasma concentration Cmax [3, 4]: 4646 ng/mL
40.5 nM	19.2 nM	N#Cc1cc(F)cc(Oc2ccc3c4c2[C@@H](F)[C@H](F)[C@]4(O)C(F)(F)S3(=O)=O)c1 [Compound 4-P1]	
737 nM	511 nM	N#Cc1cc(F)cc(Oc2ccc3c4c2[C@H](F)[C@H](F)[C@@]4(O)C(F)(F)S3(=O)=O)c1 [Compound 4-P4]	
